# From patent publication US20240238300A1, “TREATMENT METHODS FOR SUBJECTS WITH CANCER HAVING AN ABERRATION IN EGFR AND/OR HER2” (TAIHO PHARMACEUTICAL CO., LTD., priority 2021, published 2024)
# Like-named read-outs stand apart in the source and are kept apart here.
# How the values were obtained:
# [1] = pharmacokinetics after single oral administration; assay type: in vivo, male nude mice; details: plasma; for AUC(0-t): male, nude, mouse, read-out: AUC0-24
# Protocol: Compound (1) was orally administered. The concentrations of Compound (1) were quantified using LC-MS/MS for the PK studies. ^13C-labeled Compound (1) was used as an internal standard.
# Pharmacokinetics in nude mice after single oral administration. Plasma concentration profiles and PK parameters of Compound (1) were determined in male nude mice following a single oral administration at doses of 6.25, 12.5, and 25 mg/kg (FIGS. 4A and 4B, and Table 4). The Cmax, AUClast, and AUC0-24 values increased in a dose dependent manner.
# NCI-H1975 cells = experiment: growth inhibitory effect in human cancer cell lines (GI50); assay type: cell-based; details: lung cancer, EGFR L858R and T790M
# Excerpt: Wild-type EGFR gene amplification without HER2 amplification has been observed in A-431 cells. HCC827 cells (lung cancer) have been reported as harboring an EGFR activating mutation (DelE746_A750). NCI-H1975 cells (lung cancer) have been reported as having activating and acquired EGFR resistance mutations (L858R and T790M).
# human BCRP [2] = target: T1, human BCRP (Homo sapiens, UniProt Q9UNQ0); details: not told
# T1 sequence (Q9UNQ0 1-655): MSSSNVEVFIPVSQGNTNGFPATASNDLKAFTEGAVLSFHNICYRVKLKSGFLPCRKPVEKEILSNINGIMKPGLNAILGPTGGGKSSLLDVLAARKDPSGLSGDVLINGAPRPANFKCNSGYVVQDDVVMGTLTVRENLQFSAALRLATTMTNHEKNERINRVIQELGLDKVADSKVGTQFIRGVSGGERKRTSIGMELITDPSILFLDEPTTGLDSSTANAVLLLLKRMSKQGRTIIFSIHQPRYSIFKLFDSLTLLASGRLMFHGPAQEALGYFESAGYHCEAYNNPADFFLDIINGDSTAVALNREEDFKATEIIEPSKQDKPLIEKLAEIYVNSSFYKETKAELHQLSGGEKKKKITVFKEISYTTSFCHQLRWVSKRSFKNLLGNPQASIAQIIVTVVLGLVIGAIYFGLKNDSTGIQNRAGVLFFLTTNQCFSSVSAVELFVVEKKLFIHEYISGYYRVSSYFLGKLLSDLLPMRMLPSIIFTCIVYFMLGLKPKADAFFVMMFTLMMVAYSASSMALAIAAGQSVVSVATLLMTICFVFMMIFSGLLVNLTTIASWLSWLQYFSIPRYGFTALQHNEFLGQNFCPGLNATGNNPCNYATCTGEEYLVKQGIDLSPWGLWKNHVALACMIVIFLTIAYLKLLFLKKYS
# [3] = system: NCI-N87 xenografts relapsed from T-DM1; details: for T/C: Step II Day 22, vs T-DM1 group; for Number of Death / TV (mean ± SE): Step II Day 22
# Protocol: Male nude mice (BALB/cAJ1-mu/mu) were implanted with NCI-N87 human gastric carcinoma (HER2 overexpressing); 1.0×10^7 cells in 100 μL of PBS were implanted subcutaneously per mouse.
# PO; or treated with an oral suspension of Compound (1) once per day at a dosage of 25 mg/kg/day, PO. The tumor volumes (TV, mm^3) and body weights of the mice were recorded.
# SK-BR-3 cells = experiment: feedback activation of HER3, downstream targets and apoptosis markers in SK-BR-3 cells; assay type: cell-based, human; details: 48 hours
# Excerpt: The effect of Compound (1) on feedback activation of HER3, its downstream targets (ERK and AKT), and apoptosis markers (BIM and cleaved PARP) in SK-BR-3 cells was investigated. In addition, the same information for lapatinib and tucatinib (a reversible inhibitor of HER2) was obtained.
# P-gp = system: T2, P-gp; experiment: substrate susceptibility on human P-gp, bidirectional transcellular transport, P-gp/LLC-PK1 cells; assay type: in vitro ADME; details: human, LLC-PK1, with zosuquidar 10 μmol/L, read-out: net flux ratio
# T2 construct: expressed in transfected cells; host or cells: LLC-PK1 (porcine kidney) cells expressing human P-gp; mock/LLC-PK1 as control
# Protocol: (§1) Substrate susceptibility of Compound (1) on human P-gp. Time-dependence of the bidirectional transcellular transport of 1 μmol/L and 10 μmol/L Compound (1) across human P-gp/Lilly Laboratories Cell-Porcine Kidney 1 (LLC-PK1) cells and mock/LLC-PK1 cells was analyzed. Net flux ratios of some samples incubated with 1 μmol/L Compound (1) for 2 or 3 hours was not calculable as concentrations of these samples were below the lower limit of quantification. […] The net flux ratios of samples incubated with 10 μmol/L Compound (1) for 2, 3, and 4 hours were 1.4±0.4 1.7±0.3, and 1.5±0.2, respectively. The net flux ratios samples incubated with 10 μmol/L Compound (1) with 10 μmol/L zosuquidar for 2, 3, and 4 hours were 1.2±0.3, 1.2±0.1, and 1.1±0.1, respectively.
# human P-gp = target: T3, human P-gp (Homo sapiens, UniProt P08183); experiment: as above; assay type: in vitro ADME
# T3 construct: expressed in transfected cells; host or cells: LLC-PK1 (porcine kidney) cells expressing human P-gp; mock/LLC-PK1 as control
# Protocol: as §1
# human BCRP [4] = target: T1, human BCRP; experiment: inhibitory effect on human BCRP, bidirectional transport of [^3H]prazosin
# T3 sequence (P08183 whole entry): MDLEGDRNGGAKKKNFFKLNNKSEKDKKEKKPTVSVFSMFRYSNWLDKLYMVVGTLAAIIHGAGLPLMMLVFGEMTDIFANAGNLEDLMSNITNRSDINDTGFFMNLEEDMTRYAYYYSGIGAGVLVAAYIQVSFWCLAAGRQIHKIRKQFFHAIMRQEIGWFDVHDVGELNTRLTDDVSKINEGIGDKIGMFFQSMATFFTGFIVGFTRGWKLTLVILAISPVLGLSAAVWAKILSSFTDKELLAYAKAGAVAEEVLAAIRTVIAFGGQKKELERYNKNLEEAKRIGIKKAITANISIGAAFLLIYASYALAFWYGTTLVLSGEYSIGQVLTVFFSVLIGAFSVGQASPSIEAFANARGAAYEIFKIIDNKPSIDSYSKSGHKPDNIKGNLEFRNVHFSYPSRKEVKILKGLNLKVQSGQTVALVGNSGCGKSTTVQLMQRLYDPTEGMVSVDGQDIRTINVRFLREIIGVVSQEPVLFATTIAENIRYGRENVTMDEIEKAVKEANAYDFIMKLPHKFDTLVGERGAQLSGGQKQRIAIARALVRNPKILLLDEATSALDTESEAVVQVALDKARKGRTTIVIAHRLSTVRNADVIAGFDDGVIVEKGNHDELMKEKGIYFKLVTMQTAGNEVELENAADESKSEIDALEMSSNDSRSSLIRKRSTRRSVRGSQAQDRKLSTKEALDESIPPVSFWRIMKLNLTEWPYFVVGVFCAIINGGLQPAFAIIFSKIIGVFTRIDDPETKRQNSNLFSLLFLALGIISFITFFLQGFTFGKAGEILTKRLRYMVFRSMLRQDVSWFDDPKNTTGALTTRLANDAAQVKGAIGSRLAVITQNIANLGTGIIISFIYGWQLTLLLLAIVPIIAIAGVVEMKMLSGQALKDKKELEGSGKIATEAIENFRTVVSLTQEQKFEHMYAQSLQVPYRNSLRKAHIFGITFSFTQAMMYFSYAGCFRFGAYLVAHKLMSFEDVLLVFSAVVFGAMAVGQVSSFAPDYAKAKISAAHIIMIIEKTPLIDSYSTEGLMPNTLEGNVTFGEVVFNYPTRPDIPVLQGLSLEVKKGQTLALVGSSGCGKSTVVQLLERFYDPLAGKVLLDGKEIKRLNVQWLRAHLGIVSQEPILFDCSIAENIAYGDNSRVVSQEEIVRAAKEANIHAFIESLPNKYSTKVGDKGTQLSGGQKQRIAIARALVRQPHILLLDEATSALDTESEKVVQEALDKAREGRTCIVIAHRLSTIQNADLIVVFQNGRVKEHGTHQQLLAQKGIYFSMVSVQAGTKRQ
smiles,measurement,setting,value
"C=CC(=O)N1C[C@H](n2c(C#CC3CC3)c(C(=O)N[C@H](C)c3ccccc3)c3c(N)ncnc32)C[C@@H]1C [Compound (1), 7-((3R,5S)-1-acryloyl-5-methylpyrrolidin-3-yl)-4-amino-6-(cyclopropylethynyl)-N—((R)-1-phenylethyl)-7H-pyrrolo[2,3-d]pyrimidine-5-carboxamide]",AUC(0-t),[1]; single oral 6.25 mg/kg,822 ± 208 ng·h/mL
same,AUC(0-t),[1]; single oral 25 mg/kg,5230 ± 620 ng·h/mL
same,AUClast,[1]; single oral 6.25 mg/kg,795 ± 229 ng·h/mL
same,Cmax,[1]; single oral 6.25 mg/kg,601 ± 111 ng/mL
same,Tmax,[1]; single oral 6.25 mg/kg,19.8 ± 8.4 min
same,AUC0-24,[1]; single oral 12.5 mg/kg,2010 ± 230 ng·h/mL
same,AUClast,[1]; single oral 12.5 mg/kg,2010 ± 230 ng·h/mL
same,Cmax,[1]; single oral 12.5 mg/kg,1590 ± 220 ng/mL
same,Tmax,[1]; single oral 12.5 mg/kg,15 ± 0 min
same,AUClast,[1]; single oral 25 mg/kg,5080 ± 820 ng·h/mL
same,Cmax,[1]; single oral 25 mg/kg,3580 ± 190 ng/mL
same,Tmax,[1]; single oral 25 mg/kg,15 ± 0 min
same,GI50,NCI-H1975 cells,37.5 ± 20.4 nM
same,net flux ratio of [^3H]prazosin,human BCRP [2]; 0.01 μmol/L,4.6±0.4
same,net flux ratio of [^3H]prazosin,human BCRP [2]; 0.1 μmol/L,4.0±0.3
same,net flux ratio of [^3H]prazosin,human BCRP [2]; 0.5 μmol/L,2.7±0.2
same,net flux ratio of [^3H]prazosin,human BCRP [2]; 1 μmol/L,1.8±0.2
same,net flux ratio of [^3H]prazosin,human BCRP [2]; 5 μmol/L,1.3±0.2
same,net flux ratio of [^3H]prazosin,human BCRP [2]; 10 μmol/L,1.1±0.1
same,body weight loss (tolerance),[3]; 12.5 and 25 mg/kg/day,did not cause severe body weight loss
same,T/C,[3]; 12.5 mg/kg/day po Days 1-21,75.7%
same,T/C,[3]; 25 mg/kg/day po Days 1-21,62.4%
same,Number of Death,[3]; 12.5 mg/kg/day po Days 1-21,0
same,TV (mean ± SE),[3]; 12.5 mg/kg/day po Days 1-21,435.7 mm^3
same,Number of Death,[3]; 25 mg/kg/day po Days 1-21,0
same,TV (mean ± SE),[3]; 25 mg/kg/day po Days 1-21,353.7 mm^3
same,BIM and cleaved PARP,SK-BR-3 cells; 10 to 100 nmol/L,markedly increased
same,"phosphorylation of HER2, HER3, AKT, and ERK",SK-BR-3 cells; concentrations starting as low as 10 nmol/L,sustained inhibition
same,"efflux ratio at 4 h, 1 μmol/L","P-gp; 1 μmol/L Compound (1), 4 hours, with 10 μmol/L zosuquidar",1.5 ± 0.6
same,"efflux ratio at 2 h, 10 μmol/L","P-gp; 10 μmol/L Compound (1) with 10 μmol/L zosuquidar, 2 hours",1.2 ± 0.3
same,"efflux ratio at 4 h, 10 μmol/L","P-gp; 10 μmol/L Compound (1) with 10 μmol/L zosuquidar, 4 hours",1.1 ± 0.1
same,net flux ratio,"human P-gp; 1 μmol/L Compound (1), 4 hours, without zosuquidar",4.7±0.7
same,net flux ratio,"human P-gp; 10 μmol/L Compound (1) with 10 μmol/L zosuquidar, 3 hours",1.2±0.1
same,net flux ratio,"human P-gp; 10 μmol/L Compound (1), 2 hours",1.4±0.4
same,net flux ratio,"human P-gp; 10 μmol/L Compound (1), 3 hours",1.7±0.3
same,net flux ratio,"human P-gp; 10 μmol/L Compound (1), 4 hours",1.5±0.2
same,substrate susceptibility on human P-gp,human P-gp; transport saturable by increase of concentration,substrate of P-gp
same,IC50,human BCRP [4],332 nM
